# Experimental data from the supplement of paper PMC10307832.
# How the values were obtained:
# Experiment in all cases: relative viability (nuclei count vs DMSO), 5 days (fraction); higher = more cells survive
# Decitabine + Vorinostat = compound: Nc1ncn([C@H]2C[C@H](O)[C@@H](CO)O2)c(=O)n1 [Decitabine] + O=C(CCCCCCC(=O)Nc1ccccc1)NO [Vorinostat] (partner 1 µM)
# Method in brief: (§1)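 Dosing by pin tool came one day after lung cancer cell lines were seeded in 1536-well plates, using either one drug or a fixed anchor-drug dose plus five library-drug doses (not always all listed) in √10 steps. After 5 days, nuclei were counted on 4× images. Relative viability is treated-well nuclei count divided by vehicle-well nuclei count, and values are medians of duplicate plates.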
# [1] = compound: O=C(C[C@H]1NCCC[C@@H]1O)Cn1cnc2cc(Br)c(Cl)cc2c1=O (racemic) [Halofuginone] + CC(C)C[C@H](NC(=O)[C@H](Cc1ccccc1)NC(=O)c1cnccn1)B(O)O [Bortezomib] (partner 0.002 µM)
# Method in brief: as §1
# Halofuginone + Alpelisib = compound: O=C(C[C@H]1NCCC[C@@H]1O)Cn1cnc2cc(Br)c(Cl)cc2c1=O (racemic) [Halofuginone] + Cc1nc(NC(=O)N2CCC[C@H]2C(N)=O)sc1-c1ccnc(C(C)(C)C(F)(F)F)c1 [Alpelisib] (partner 2 µM)
# Method in brief: as §1
# Decitabine + Luminespib = compound: Nc1ncn([C@H]2C[C@H](O)[C@@H](CO)O2)c(=O)n1 [Decitabine] + CCNC(=O)c1noc(-c2cc(C(C)C)c(O)cc2O)c1-c1ccc(CN2CCOCC2)cc1 [Luminespib] (partner 0.01 µM)
# Method in brief: as §1
cell line,measurement,setting,value
UMC-11,relative viability,Decitabine + Vorinostat; first compound 0.04 µM,0.269
same,relative viability,Decitabine + Vorinostat; first compound 0.1265 µM,0.263
same,relative viability,Decitabine + Vorinostat; first compound 0.4 µM,0.236
same,relative viability,Decitabine + Vorinostat; first compound 1.265 µM,0.19
same,relative viability,Decitabine + Vorinostat; first compound 4 µM,0.193
same,relative viability,[1]; first compound 0.001 µM,0.683
same,relative viability,[1]; first compound 0.003162 µM,0.775
same,relative viability,[1]; first compound 0.01 µM,0.684
same,relative viability,[1]; first compound 0.03162 µM,0.689
same,relative viability,[1]; first compound 0.1 µM,0.645
same,relative viability,Halofuginone + Alpelisib; first compound 0.001 µM,1.04
same,relative viability,Halofuginone + Alpelisib; first compound 0.003162 µM,0.909
same,relative viability,Halofuginone + Alpelisib; first compound 0.01 µM,0.989
same,relative viability,Halofuginone + Alpelisib; first compound 0.03162 µM,0.885
same,relative viability,Halofuginone + Alpelisib; first compound 0.1 µM,0.457
same,relative viability,Decitabine + Luminespib; first compound 0.04 µM,0.935
same,relative viability,Decitabine + Luminespib; first compound 0.1265 µM,0.773
same,relative viability,Decitabine + Luminespib; first compound 0.4 µM,0.559
same,relative viability,Decitabine + Luminespib; first compound 1.265 µM,0.382
same,relative viability,Decitabine + Luminespib; first compound 4 µM,0.372
